Results on 1 compound are retold here after ChEMBL document CHEMBL5712901, “DOT1L inhibition blocks multiple myeloma cell proliferation by suppressing IRF4-MYC signaling” (2019).

This assay relates to RPMI-8226. As to the kind of experiment: Upregulation of HLA-DRB5 gene in human RPMI-8226 cells at 1 uM for 6 days by. The format is functional, cell-based. The note with it: time 6.0 day.

Activity calls are given as the source filed them. The rule behind the calls is not given here.

On to `CC(C)N(CCCNC(=O)Nc1ccc(C(C)(C)C)cc1)C[C@H]1O[C@@H](n2cc(Br)c3c(N)ncnc32)[C@H](O)[C@@H]1O`, for which the outcome was Active.
